{"source": "paper PMC9126943", "about": "“ADAMTS4-specific MR probe to assess aortic aneurysms in vivo using synthetic peptide libraries” (Nature Communications, 2022)", "target": "T1, ADAMTS4 in the aneurysmal aortic wall of ApoE−/− mice (Mus musculus, UniProt Q8BNJ2)", "T1 construct": "from tissue", "T1 sequence (Q8BNJ2 209-833)": "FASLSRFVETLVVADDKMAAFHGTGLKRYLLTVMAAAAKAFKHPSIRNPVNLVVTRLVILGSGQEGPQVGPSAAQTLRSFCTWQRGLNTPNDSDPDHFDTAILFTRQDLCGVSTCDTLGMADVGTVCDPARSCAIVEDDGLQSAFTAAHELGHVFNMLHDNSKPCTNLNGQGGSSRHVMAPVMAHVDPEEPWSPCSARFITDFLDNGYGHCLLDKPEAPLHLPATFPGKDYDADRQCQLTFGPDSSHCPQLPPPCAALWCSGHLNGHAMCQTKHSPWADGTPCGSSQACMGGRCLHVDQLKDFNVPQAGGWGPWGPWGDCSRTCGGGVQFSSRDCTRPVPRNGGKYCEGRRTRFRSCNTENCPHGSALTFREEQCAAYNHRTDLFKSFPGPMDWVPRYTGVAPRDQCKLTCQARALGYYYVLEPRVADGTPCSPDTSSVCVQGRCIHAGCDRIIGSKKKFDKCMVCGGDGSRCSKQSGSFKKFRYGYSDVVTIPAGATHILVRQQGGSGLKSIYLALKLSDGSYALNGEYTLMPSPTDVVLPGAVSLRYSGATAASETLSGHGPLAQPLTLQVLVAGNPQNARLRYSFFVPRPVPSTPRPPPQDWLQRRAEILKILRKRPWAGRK", "assay": "In vivo MRI, longitudinal study (1 week after aneurysm induction)", "settings": "longitudinal group, 1 week after AngII, n = 12; one line per mouse", "experimental": "The longitudinal study includes an MR imaging session 1 week after aneurysm induction (n = 12) with the administration of the ADAMTS4-specific probe. Animals were then followed up for 4 weeks to evaluate the potential of the probes for the prediction of aneurysm progression. After 4 weeks, mice were sacrificed, and aortas excised.\nMR imaging was performed using a clinical 3 T Siemens system (Biograph, Siemens Healthcare Solutions, Erlangen, Germany). The system was equipped with a 4-channel receive-coil array for mouse body applications (Mouse Heart Array, P-H04LE-030, Version 1, Rapid Biomedical, Germany). Following anesthesia injection, the animals were positioned in a prone position, and body temperature (37 °C) was monitored using an MR-compatible heating system (Model 1025, SA Instruments Inc, Stony Brook, NY) to avoid rapid cooling. […]\nAnalysis of resulting MR images was performed using OsiriX (version 7.1, OsiriX Foundation, Bernex, Switzerland). […] In order to assess the signal intensities, regions of interest (ROIs) were measured as areas of signal enhancement, which were co-localized with areas of aneurysmal-aortic tissue. For these areas, the CNR was calculated using the following formula: CNR = (Combined vessel-wall and aneurysmal-aortic-tissue-signal − blood-signal)/standard-deviation-signal (noise). […]", "note": "Where “and” joins values, the source holds several entries; their conditions need not be identical. Equal values may be shown once. Where a SMILES comes first, the peptide text is derived from it. Bridges are numbered along the chain shown (N, C = ends). The star is where a group is joined. DOTA = O=C(O)CN1CCN(CC(=O)O)CCN(CC(=O)*)CCN(CC(=O)O)CC1", "data": [{"smiles": "N=C(N)NCCC[C@@H]1NC(=O)[C@H](CCCNC(=N)N)NC(=O)[C@H](CO)NC(=O)[C@@H](N)CSSC[C@@H](C(=O)N[C@@H](CO)C(=O)NCC(=O)NCC(=O)N[C@@H](CO)C(=O)NCC(=O)NCC(=O)N[C@@H](CCCCNC(=O)CN2CCN(CC(=O)O)CCN(CC(=O)O)CCN(CC(=O)O)CC2)C(=O)NCC(N)=O)NC(=O)CNC1=O", "note": "(Gd complex, metal not drawn) [ADAMTS4-specific probe] (H-CSRRGCSGGSGGK(DOTA)G-NH2; disulfide 1-6)", "values": [{"measurement": "CNR post administration, individual animals", "value": "10.17 and 7.35 and 11.97 and 12.63 and 7.15 and 7.46 and 7.27 and 8.85 and 11.26 and 15.46 and 7.57 and 11.23"}]}]}
